Assay results published in patent US12466809B2, “CDK2/5 degraders and uses thereof” (DANA-FARBER CANCER INSTITUTE, INC., priority 2019, dated 2025).

Tests used:
[1] = target: CDK9 (Homo sapiens (Human), UniProt P50750); assay: Knockdown of CDKs in Jurkat cells, immunoblot: CDK9; format: cell-based; conditions: 0.25 μM, 6 hours
Procedure: Jurkat acute T cell leukemia cells were treated with 0, 0.1 μM, 1 μM, and 10 μM of compounds 1-7 or 0.25 μM THAL-SNS-032 (a known CDK9 degrader, as a positive control for CDK9 degradation) for 6 hours, and then lysed and immunoblotted with antibodies to CDK1, CDK2, CDK5, CDK7, CDK9, CDK12, CDK13 and R-Actin (FIG. 1A-FIG. 2B).

[2] = target: CDK2/Cyclin A (Homo sapiens (Human), UniProt P24941); assay: Invitrogen Z'-LYTE kinase assay CDK2/Cyclin A (assay ID 315, Km app, 10-point titration); format: biochemical; conditions: Km app ATP
From the text: (§1) CDK2 and CDK5 IC50 data were attained through the use of Invitrogen™ commercial assays. The method for CDK2 (assay ID: 315, kinase|Z'-LYTE™|CDK2/Cyclin A|Km app) used a 10-point titration. The method for CDK5 (assay ID: 318, kinase|Z'-LYTE™|CDK5/p25|Km app) used a 10-point titration.

[3] = target: CDK5/p25 (Homo sapiens (Human), UniProt Q00535); assay: Invitrogen Z'-LYTE kinase assay CDK5/p25 (assay ID 318, Km app, 10-point titration); format: biochemical; conditions: CDK5/p25, Km app ATP
From the text: as §1

[4] = target: CDK5 (Homo sapiens (Human), UniProt Q00535); assay: Knockdown of CDK2/5 in OVCAR8 cells, immunoblot: CDK5; format: cell-based; conditions: various concentrations, 6 hours
[5] = target: CDK2 (Homo sapiens (Human), UniProt P24941); assay: Knockdown of CDK2/5 in OVCAR8 cells, immunoblot: CDK2; format: cell-based; conditions: various concentrations, 6 hours

Sequence of CDK5/p25 (Q00535 whole entry): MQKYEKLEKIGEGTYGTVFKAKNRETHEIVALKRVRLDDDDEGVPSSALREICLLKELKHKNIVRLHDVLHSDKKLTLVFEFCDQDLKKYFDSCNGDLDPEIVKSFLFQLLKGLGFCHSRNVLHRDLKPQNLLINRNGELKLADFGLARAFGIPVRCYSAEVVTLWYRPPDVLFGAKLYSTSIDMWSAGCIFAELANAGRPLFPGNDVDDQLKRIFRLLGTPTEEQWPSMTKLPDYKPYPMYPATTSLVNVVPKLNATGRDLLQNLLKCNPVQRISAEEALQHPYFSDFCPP
Sequence of CDK5/p25 (Q15078 99-307 partner): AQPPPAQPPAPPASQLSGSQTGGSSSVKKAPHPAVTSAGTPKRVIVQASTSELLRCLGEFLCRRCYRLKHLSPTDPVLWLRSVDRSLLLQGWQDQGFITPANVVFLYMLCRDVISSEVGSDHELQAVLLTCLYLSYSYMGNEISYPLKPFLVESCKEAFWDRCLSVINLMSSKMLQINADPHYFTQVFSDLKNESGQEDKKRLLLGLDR
Sequence of CDK5 (Q00535 whole entry): as the sequence (Q00535 whole entry) above
Sequence of CDK9 (P50750 whole entry): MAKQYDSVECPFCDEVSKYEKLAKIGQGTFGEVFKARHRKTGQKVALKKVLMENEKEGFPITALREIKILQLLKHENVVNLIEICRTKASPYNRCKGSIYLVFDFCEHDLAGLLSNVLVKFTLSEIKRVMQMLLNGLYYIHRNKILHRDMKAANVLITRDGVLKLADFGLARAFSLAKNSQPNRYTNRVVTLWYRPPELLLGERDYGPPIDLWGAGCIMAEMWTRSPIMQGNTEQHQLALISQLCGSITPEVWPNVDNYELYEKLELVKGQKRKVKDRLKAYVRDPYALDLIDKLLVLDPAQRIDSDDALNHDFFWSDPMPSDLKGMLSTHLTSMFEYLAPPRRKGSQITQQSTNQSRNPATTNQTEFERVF

| Structure (SMILES) | CDK9 degradation [1] | IC50 [2] | IC50 [3] | knockdown of CDK5 [4] | knockdown of CDK2 [5] |
| --- | --- | --- | --- | --- | --- |
| NC(=O)c1c(F)cccc1Nc1nc(NC2CCN(S(=O)(=O)CCNC(=O)CCOCCOCCOc3cccc4c3C(=O)N(C3CCC(=O)NC3=O)C4=O)CC2)ncc1Br (stereo not drawn) [Compound 3, 2-((5-bromo-2-((1-((2-(3-(2-(2-((2-(2,6-dioxopiperidin-3-yl)-1,3-dioxoisoindolin-4-yl)oxy)ethoxy)ethoxy)propanamido)ethyl)sulfonyl)piperidin-4-yl)amino)pyrimidin-4-yl)amino)-6-fluorobenzamide] |  | 4.9 nM | 4.8 nM |  |  |
| O=C(CCCCCCCCOc1cccc2c1C(=O)N(C1CCC(=O)NC1=O)C2=O)NCCS(=O)(=O)N1CCC(Nc2ncc(Br)c(Nc3cccc4c3OCO4)n2)CC1 (stereo not drawn) [Compound 17, N-(2-((4-((4-(benzo[d][1,3]dioxol-4-ylamino)-5-bromopyrimidin-2-yl)amino)piperidin-1-yl)sulfonyl)ethyl)-9-((2-(2,6-dioxopiperidin-3-yl)-1,3-dioxoisoindolin-4-yl)oxy)nonanamide] |  | 253 nM | 924 nM |  |  |
| NC(=O)c1c(F)cccc1Nc1nc(NC2CCN(S(=O)(=O)CCNC(=O)CCCCCOc3cccc4c3C(=O)N(C3CCC(=O)NC3=O)C4=O)CC2)ncc1Br (stereo not drawn) [Compound 7, 2-((5-bromo-2-((1-((2-(6-((2-(2,6-dioxopiperidin-3-yl)-1,3-dioxoisoindolin-4-yl)oxy)hexanamido)ethyl)sulfonyl)piperidin-4-yl)amino)pyrimidin-4-yl)amino)-6-fluorobenzamide] |  | 20.5 nM | 13.7 nM |  |  |
| NC(=O)c1c(F)cccc1Nc1nc(NC2CCN(S(=O)(=O)CCNC(=O)CCOCCNc3cccc4c3C(=O)N(C3CCC(=O)NC3=O)C4=O)CC2)ncc1Br (stereo not drawn) [Compound 2, 2-((5-bromo-2-((1-((2-(3-(2-((2-(2,6-dioxopiperidin-3-yl)-1,3-dioxoisoindolin-4-yl)amino)ethoxy)propanamido)ethyl)sulfonyl)piperidin-4-yl)amino)pyrimidin-4-yl)amino)-6-fluorobenzamide] |  | 5.1 nM | 3.8 nM |  |  |
| NC(=O)c1c(F)cccc1Nc1nc(NC2CCN(S(=O)(=O)CCNC(=O)CCCCCCCCOc3cccc4c3C(=O)N(C3CCC(=O)NC3=O)C4=O)CC2)ncc1Br (stereo not drawn) [Compound 5, 2-((5-bromo-2-((1-((2-(9-((2-(2,6-dioxopiperidin-3-yl)-1,3-dioxoisoindolin-4-yl)oxy)nonanamido)ethyl)sulfonyl)piperidin-4-yl)amino)pyrimidin-4-yl)amino)-6-fluorobenzamide] |  | 28.7 nM | 16.1 nM | selective knockdown | selective knockdown |
| Cc1ncsc1-c1ccc([C@H](C)NC(=O)[C@@H]2C[C@@H](O)CN2C(=O)[C@@H](NC(=O)CCOCCOCCOCCC(=O)NCCS(=O)(=O)N2CCC(Nc3ncc(Br)c(Nc4cccc(F)c4C(N)=O)n3)CC2)C(C)(C)C)cc1 [Compound 9, (2S,4R)-1-((S)-19-((4-((5-bromo-4-((2-carbamoyl-3-fluorophenyl)amino)pyrimidin-2-yl)amino)piperidin-1-yl)sulfonyl)-2-(tert-butyl)-4,16-dioxo-7,10,13-trioxa-3,17-diazanonadecanoyl)-4-hydroxy-N—((S)-1-(4-(4-methylthiazol-5-yl)phenyl)ethyl)pyrrolidine-2-carboxamide] |  | 7.5 nM | 4.1 nM |  |  |

Further lines, results first:

| CDK9 degradation [1] | IC50 [2] | IC50 [3] | knockdown of CDK5 [4] | knockdown of CDK2 [5] | Structure (SMILES) |
| --- | --- | --- | --- | --- | --- |
| induced CDK9 degradation |  |  |  |  | CC(C)(C)c1cnc(CSc2cnc(NC(=O)C3CCN(CC(=O)NCCOCCOCCOCCNc4cccc5c4C(=O)N(C4CCC(=O)NC4=O)C5=O)CC3)s2)o1 (stereo not drawn) [THAL-SNS-032] |
|  | 5.7 nM | 5.7 nM |  |  | Cn1ncc(Nc2nc(NC3CCN(S(=O)(=O)CCNC(=O)CCCCCCCCOc4cccc5c4C(=O)N(C4CCC(=O)NC4=O)C5=O)CC3)ncc2Br)c1C(N)=O (stereo not drawn) [Compound 22, 4-((5-bromo-2-((1-((2-(9-((2-(2,6-dioxopiperidin-3-yl)-1,3-dioxoisoindolin-4-yl)oxy)nonanamido)ethyl)sulfonyl)piperidin-4-yl)amino)pyrimidin-4-yl)amino)-1-methyl-1H-pyrazole-5-carboxamide] |
|  | 116 nM | 71.3 nM |  |  | NC(=O)c1c(F)cccc1Nc1nc(NC2CCN(S(=O)(=O)CCNC(=O)CCOCCOCCOCCOCCNc3cccc4c3C(=O)N(C3CCC(=O)NC3=O)C4=O)CC23CC3)ncc1Br (stereo not drawn) [Compound 19, N-(2-((8-((5-bromo-4-((2-carbamoyl-3-fluorophenyl)amino)pyrimidin-2-yl)amino)-5-azaspiro[2.5]octan-5-yl)sulfonyl)ethyl)-1-((2-(2,6-dioxopiperidin-3-yl)-1,3-dioxoisoindolin-4-yl)amino)-3,6,9,12-tetraoxapentadecan-15-amide] |
|  | 23.7 nM | 27.4 nM |  |  | O=C(CCOCCOCCOCCOCCNc1cccc2c1C(=O)N(C1CCC(=O)NC1=O)C2=O)NCCS(=O)(=O)N1CCC(Nc2ncc(Br)c(N3CCCc4ccccc43)n2)CC1 (stereo not drawn) [Compound 18, N-(2-((4-((5-bromo-4-(3,4-dihydroquinolin-1(2H)-yl)pyrimidin-2-yl)amino)piperidin-1-yl)sulfonyl)ethyl)-1-((2-(2,6-dioxopiperidin-3-yl)-1,3-dioxoisoindolin-4-yl)amino)-3,6,9,12-tetraoxapentadecan-15-amide] |
